Data taken from patent US8735414B2 (priority 2009, dated 2014).

Experiments:
[1] = tested on: bicistronic HCV replicon (replicon RNA, GenBank Accession No. AJ242654); experiment: HCV Replicon Assay; format: cell-based; details: Hepatitis C virus, 72 h, read-out: Replicon IC50

Row | Structure (SMILES) | IC50 [1] | melting point
1 | Cc1ccc2c(c1)c(C#N)c(-c1ccc(S(=O)(=O)N[C@@H](C)C(F)(F)F)cn1)n2-c1ncccn1 [compound 843, 6-[3-cyano-5-methyl-1-(pyrimidin-2-yl)-1H-indol-2-yl]-N-[(2S)-1,1,1-trifluoropropan-2-yl]pyridine-3-sulfonamide] | < 500 nM | 174 to 179 °C
2 | N#Cc1c(-c2ccc(S(=O)(=O)NC(CF)CF)cn2)n(-c2ccccc2)c2cc(OC(F)F)ccc12 [compound 226, 6-[3-cyano-6-(difluoromethoxy)-1-phenyl-1H-indol-2-yl]-N-(1,3-difluoropropan-2-yl)pyridine-3-sulfonamide] | < 500 nM | 200 to 202 °C
3 | N#Cc1c(-c2ccc(S(=O)(=O)NC(CF)CF)cn2)n(C2CCC2)c2cc(F)ccc12 [compound 56, 6-(3-cyano-1-cyclobutyl-6-fluoro-1H-indol-2-yl)-N-(1,3-difluoropropan-2-yl)pyridine-3-sulfonamide] | < 500 nM | 206 to 208 °C
4 | C[C@H](NS(=O)(=O)c1ccc(-c2c(C#N)c3ccc(C(F)(F)F)cc3n2-c2cnccn2)nc1)C(F)(F)F [compound 951, 6-[3-cyano-1-(pyrazin-2-yl)-6-(trifluoromethyl)-1H-indol-2-yl]-N-[(2S)-1,1,1-trifluoropropan-2-yl]pyridine-3-sulfonamide] | < 500 nM | 208 to 213 °C
5 | CC(C)c1ccc2c(C#N)c(-c3ccc(S(=O)(=O)NC(CF)CF)cn3)n(C3CCC3)c2c1 [compound 43, 6-[3-cyano-1-cyclobutyl-6-(propan-2-yl)-1H-indol-2-yl]-N-(1,3-difluoropropan-2-yl)pyridine-3-sulfonamide] | < 500 nM | 135 to 140 °C
6 | Cc1ccc2c(c1)c(C#N)c(-c1ncc(S(=O)(=O)NC(CF)CF)cn1)n2C1CCC1 [compound 122, 2-(3-cyano-1-cyclobutyl-5-methyl-1H-indol-2-yl)-N-(1,3-difluoropropan-2-yl)pyrimidine-5-sulfonamide] | < 500 nM | 140 to 145 °C
7 | Cc1ccc2c(C#N)c(-c3ccc(S(=O)(=O)NC4(C(F)(F)F)CCC4)cn3)n(C3CCC3)c2c1 [compound 587, 6-(3-cyano-1-cyclobutyl-6-methyl-1H-indol-2-yl)-N-[1-(trifluoromethyl)cyclobutyl]pyridine-3-sulfonamide] | < 500 nM | 228 to 232 °C
8 | C[C@H](NS(=O)(=O)c1ccc(-c2c(C#N)c3cc(O)c(OC(F)F)cc3n2C2CCC2)nc1)C(F)(F)F [compound 674, 6-[3-cyano-1-cyclobutyl-6-(difluoromethoxy)-5-hydroxy-1H-indol-2-yl]-N-[(2S)-1,1,1-trifluoropropan-2-yl]pyridine-3-sulfonamide] | < 500 nM | 174 to 177 °C
9 | CC(C)(C)NS(=O)(=O)c1ccc(-c2c(C#N)c3cc(F)c(Br)cc3n2-c2ncccn2)nc1 [compound 938, 6-[6-bromo-3-cyano-5-fluoro-1-(pyrimidin-2-yl)-1H-indol-2-yl]-N-tert-butylpyridine-3-sulfonamide] | < 500 nM | 266 to 268 °C
10 | N#Cc1c(-c2ccc(S(=O)(=O)NC(CF)CF)cn2)n(-c2ccccc2)c2ccc(F)cc12 [compound 113, 6-(3-cyano-5-fluoro-1-phenyl-1H-indol-2-yl)-N-(1,3-difluoropropan-2-yl)pyridine-3-sulfonamide] | < 500 nM | 165 to 168 °C
11 | C[C@@H](NS(=O)(=O)c1ccc(-c2c(C#N)c3cc(Cl)ccc3n2-c2ccccn2)nc1)C(F)(F)F [compound 491, 6-[5-chloro-3-cyano-1-(pyridin-2-yl)-1H-indol-2-yl]-N-[(2R)-1,1,1-trifluoropropan-2-yl]pyridine-3-sulfonamide] | 500 to 2000 nM | 150 to 154 °C
12 | CCc1cc2c(cc1F)c(C#N)c(-c1ccc(S(=O)(=O)N[C@@H](C)C(F)(F)F)cn1)n2-c1cccc(OC)c1 [compound 1010, 6-[3-cyano-6-ethyl-5-fluoro-1-(3-methoxyphenyl)-1H-indol-2-yl]-N-[(2S)-1,1,1-trifluoropropan-2-yl]pyridine-3-sulfonamide] | < 500 nM | 229 to 233 °C
13 | CC(C)(NS(=O)(=O)c1ccc(-c2c(C#N)c3cc(F)ccc3n2-c2ncccn2)nc1)C(F)(F)F [compound 602, 6-[3-cyano-5-fluoro-1-(pyrimidin-2-yl)-1H-indol-2-yl]-N-(1,1,1-trifluoro-2-methylpropan-2-yl)pyridine-3-sulfonamide] | 500 to 2000 nM | 231 to 234 °C
14 | CC(C)NS(=O)(=O)c1cnc(-c2c(C#N)c3ccc(F)cc3n2CC2CC2)nc1 [compound 139, 2-[3-cyano-1-(cyclopropylmethyl)-6-fluoro-1H-indol-2-yl]-N-(propan-2-yl)pyrimidine-5-sulfonamide] | 500 to 2000 nM | 218 to 219 °C
15 | N#Cc1ccc2c(C#N)c(-c3ccc(S(=O)(=O)NC(CF)CF)cn3)n(CC3CC3)c2c1 [compound 347, 6-[3,6-dicyano-1-(cyclopropylmethyl)-1H-indol-2-yl]-N-(1,3-difluoropropan-2-yl)pyridine-3-sulfonamide] | 500 to 2000 nM | 199 to 201 °C
16 | Cc1ccnc(-n2c(-c3ccc(S(=O)(=O)N[C@@H](C)C(F)(F)F)cn3)c(C(N)=O)c3cc(F)c(C)cc32)n1 [compound 905, 5-fluoro-6-methyl-1-(4-methylpyrimidin-2-yl)-2-(5-{[(2S)-1,1,1-trifluoropropan-2-yl]sulfamoyl}pyridin-2-yl)-1H-indole-3-carboxamide] | < 500 nM | 205 to 210 °C
17 | N#Cc1c(-c2ccc(S(=O)(=O)NC(CF)CF)cn2)n(C2CCCC2)c2cc(Cl)ccc12 [compound 64, 6-(6-chloro-3-cyano-1-cyclopentyl-1H-indol-2-yl)-N-(1,3-difluoropropan-2-yl)pyridine-3-sulfonamide] | < 500 nM | 236 to 240 °C
18 | C[C@H](NS(=O)(=O)c1ccc(-c2c(C(N)=O)c3cc(F)ccc3n2C2CCC2)nc1)C(F)(F)F [compound 997, 1-cyclobutyl-5-fluoro-2-(5-{[(2S)-1,1,1-trifluoropropan-2-yl]sulfamoyl}pyridin-2-yl)-1H-indole-3-carboxamide] | < 500 nM | 224 to 227 °C
19 | Cc1cc2c(cc1F)c(C(=O)O)c(-c1ncc(S(=O)(=O)NC(C)(C)C)cn1)n2C1CCC1 [compound 794, 2-[5-(tert-butylsulfamoyl)pyrimidin-2-yl]-1-cyclobutyl-5-fluoro-6-methyl-1H-indole-3-carboxylic acid] | 2000 to 5000 nM | 194 to 201 °C
20 | CC(C)(NS(=O)(=O)c1ccc(-c2c(C(N)=O)c3cc(F)c(OC(F)F)cc3n2C2CCC2)nc1)C(F)(F)F [compound 729, 1-cyclobutyl-6-(difluoromethoxy)-5-fluoro-2-{5-[(1,1,1-trifluoro-2-methylpropan-2-yl)sulfamoyl]pyridin-2-yl}-1H-indole-3-carboxamide] | < 500 nM | 207 to 209 °C
21 | N#Cc1c(-c2ccc(S(=O)(=O)NC(CF)CF)cn2)n(C2CCCCC2)c2ccc(F)cc12 [compound 104, 6-(3-cyano-1-cyclohexyl-5-fluoro-1H-indol-2-yl)-N-(1,3-difluoropropan-2-yl)pyridine-3-sulfonamide] | < 500 nM | 138 to 141 °C
22 | Cc1cc2c(cc1F)c(C(N)=O)c(-c1ccc(S(=O)(=O)N[C@H](C)C(F)(F)F)cn1)n2C1CCC1 [compound 732, 1-cyclobutyl-5-fluoro-6-methyl-2-(5-{[(2R)-1,1,1-trifluoropropan-2-yl]sulfamoyl}pyridin-2-yl)-1H-indole-3-carboxamide] | < 500 nM | 195 to 197 °C
23 | CCc1cc2c(cc1F)c(C#N)c(-c1cc(C)c(S(=O)(=O)N[C@H](C)C(F)(F)F)cn1)n2-c1ccccn1 [compound 891, 6-[3-cyano-6-ethyl-5-fluoro-1-(pyridin-2-yl)-1H-indol-2-yl]-4-methyl-N-[(2R)-1,1,1-trifluoropropan-2-yl]pyridine-3-sulfonamide] | < 500 nM | 178 to 183 °C
24 | C[C@H](NS(=O)(=O)c1ccc(-c2c(C#N)c3ccc(C(F)F)cc3n2C2CCC2)nc1)C1CC1 [compound 335, 6-[3-cyano-1-cyclobutyl-6-(difluoromethyl)-1H-indol-2-yl]-N-[(1S)-1-cyclopropylethyl]pyridine-3-sulfonamide] | < 500 nM | 182 to 189 °C
25 | CC(C)n1c(-c2ccc(S(=O)(=O)N[C@@H](C)C(F)(F)F)cn2)c(C#N)c2cc(F)c(OC(F)F)cc21 [compound 936, 6-[3-cyano-6-(difluoromethoxy)-5-fluoro-1-(propan-2-yl)-1H-indol-2-yl]-N-[(2S)-1,1,1-trifluoropropan-2-yl]pyridine-3-sulfonamide] | < 500 nM | 184 to 188 °C
26 | Cc1cc2c(C#N)c(-c3ccc(S(=O)(=O)N[C@@H](C)C(F)(F)F)cn3)n(C3CCC3)c2cc1F [compound 492, 6-(3-cyano-1-cyclobutyl-6-fluoro-5-methyl-1H-indol-2-yl)-N-[(2S)-1,1,1-trifluoropropan-2-yl]pyridine-3-sulfonamide] | < 500 nM | 185 to 190 °C
27 | Cc1cc2c(C(N)=O)c(-c3ccc(S(=O)(=O)N[C@@H](C)C(F)(F)F)cn3)n(-c3ncccn3)c2cc1F [compound 918, 6-fluoro-5-methyl-1-(pyrimidin-2-yl)-2-(5-{[(2S)-1,1,1-trifluoropropan-2-yl]sulfamoyl}pyridin-2-yl)-1H-indole-3-carboxamide] | 2000 to 5000 nM | 245 to 249 °C
28 | C[C@H](NS(=O)(=O)c1ccc(-c2c(C#N)c3ccc(C4CCC4)cc3n2C2CCC2)nc1)C1CC1 [compound 263, 6-(3-cyano-1,6-dicyclobutyl-1H-indol-2-yl)-N-[(1S)-1-cyclopropylethyl]pyridine-3-sulfonamide] | < 500 nM | 124 to 126 °C
